From patent US10799501B2, “Combination of an inhibitor of PARP with an inhibitor of GSK-3 or DOT1L” (King's College London, priority 2015, dated 2020)

Columns and labels:
MLL LSC = experiment: Colony formation and differentiation of MLL LSC with PARPi, LiCl or combination; assay type: cell-based, mouse; details: seven days; 8 mM LiCl, 1 μM Olaparib
Experimental: Colonies were scored 6-7 days after plating. For other in vitro studies, mouse leukemic cells and primary AML cell lines were subjected to continuously Olaparib (1 μM) or LiCl (8 mM) treatment in liquid culture for whole duration as indicated in the figures or figure legends. For human leukemic cell lines, experiments were performed as described above with 5 μM Olaparib. 1×10^5 cells were cytospun for 5 min at 300 g onto glass slides. Slides were then stained with May-Grunwald solution (Sigma-Aldrich) for 3 min at room temperature. After washing in water, they were incubated for 20 min in Giemsa solution (Sigma-Aldrich) (1:20 in water). Slides were washed again in water before being mounted with Mowiol. Cells were counted in at least 5 fields for each slide, for a total of over 100 cells per condition. NBT reduction assay were performed to determine myeloid differentiation. 0.1% of NBT (final concentration) was added to the liquid culture or semi-solid methocult and incubated at 37° C. CO2 incubator for 3 hrs and 12 hrs, respectively. Cells were then washed in PBS and the differentiated cells were indicated by the deposition of dark blue insoluble formazan (NBT positive cells) and the percentage of differentiated cells were counted under microscopy. At least 200 cells were counted in most of the cases.

MLL-AF9 LSC = experiment: C57Bl6 mice transplanted with pretreated MLL-AF9 LSC, PARPi and GSK3i treatment; assay type: in vivo, mouse
Experimental: For mouse MLL-AF9 LSC in vivo studies involving PARPi and GSK3i, MLL-AF9 LSC were pretreated in R20/20 with 4 mM LiCl or 1 uM Olaparib or combination for 3 days. Equal number 0.2×10^6 of live cells were transplanted into sublethally irradiated C57Bl6 mice. Continuous Olaparib and LiCO3 treatment was commenced on the day after irradiation and injection of cells. Mice were given 0.4% lithium carbonate containing diet (Harlan Laboratory) along with Olaparib by IP every other day for 4 weeks. The engraftment of mouse donor cells was defined as CD45.1+/CD45.2− by FACS.

NB4-LR2 (PML-RARα) = experiment: Humanized xenograft: NSG mice transplanted with NB4-LR2 cells, Olaparib treatment; assay type: in vivo, mouse
Experimental: We established humanized models of AML1-ETO and PML-RARα leukemia in sub-lethally irradiated NOD/SCID/IL2Rg−/−(NSG, 1 dose 200 RADs) by transplanting 2×10^6 Kasumi (intra-femoral, IF) and 1×10^5 NB4-LR2 or 1×10^5 THP1 (intravenous, IV) cells. The day after the transplantation, mice were split into two groups and given intra-peritoneal injections of vehicle (10% HBC) or Olaparib (25 mg/kg in 10% HBC) daily for 2-4 weeks. The maximum tolerable dose was calculated by in vivo dose-response experiments. Mice were monitored daily until they developed symptoms of leukemia, when they were culled and bone marrow, spleen and liver harvested and analyzed by FACS. The engraftment of human donor cells was defined as human CD45/CD33 double positive by FACS.

Kasumi (AML1-ETO) = experiment: In vitro PARPi treatment of human leukemic cell line Kasumi; assay type: cell-based
Experimental: NB4-LR2 and THP1 cell lines (kindly provided by Dr Arthur Zelent and Professor Mel Greaves respectively) were cultured in RPMI (Invitrogen) supplemented with 10% selected FBS (R10), 2 mM L-Glutamine. Kasumi cell line (kindly provided by Dr Olaf Heidenreich) was cultured in RPMI-Hepes modified (Sigma) supplemented with 20% selected FBS and 2 mM L-[…]). Cell lines were validated by qPCR for their respective oncogenes. NIH3T3 and GP2 cell line was cultured in DMEM (Invitrogen) supplemented with 10% selected FBS and 2 mM L-Glutamine. Human primary AML cells were cultured in IMEM (Invitrogen) supplemented with […], 2 mM L-Glutamine, 10 ng/mL each of human cytokines, IL3, IL6, SCF, FLT3 ligand, and TPO. Cells were kept at 37° C. and 5% CO2. Use of human primary cells was approved by King's College London committee and consents of the patients were obtained. […] Colonies were scored 6-7 days after plating. […] Samples were then washed in PBS analysed at the FACS LSRII (BD Biosciences Pharmingen) with FACS Diva. […] Cells were counted in at least 5 fields for each slide, for a total of over 100 cells. The percentage of senescent cells was calculated by the percentage of the number of blue cell in the field.

[1] = tested on: MLL-AF9 leukemic cells (wild type); experiment: C57Bl/6 mice transplanted with wild type MLL-AF9 leukemic cells, Olaparib treatment; assay type: in vivo, mouse; details: Olaparib 50 mg/kg daily
Experimental: For Hoxa9 KO studies, we intravenously injected […] MLL-AF9 leukemic cells (wild type or Hoxa9−/− background) together with 2×10^5 bone marrow rescue cells into lethally irradiated C57Bl/6 mice (2 doses of irradiation 550 RADS each) for disease development. For drug studies, the control cohort received vehicle (10% 2-Hydroxpropyl-beta-cyclodextrin, HBC, Sigma-Aldrich) and the PARPi treatment group received daily Olaparib 50 mg/kg in 10% HBC for two-four weeks.

[2] = C57Bl6 mice, MLL-AF9 wild-type leukemia, cells pre-treated 3 days, then in vivo treatment 4 weeks
[3] = NSG mice succumbed with NB4-LR2 driven disease, Olaparib 25 mg/kg i.p. daily
[4] = C57Bl6 mice succumbed with MLL-AF9 wild-type driven leukemia

O=C(c1cc(Cc2n[nH]c(=O)c3ccccc23)ccc1F)N1CCN(C(=O)C2CC2)CC1 [Olaparib, 4-[(3-[(4-cyclopropylcarbonyl)piperazin-4-yl]carbonyl)-4-fluorophenyl]methyl(2H)-phthalazin-1-one]
colony forming ability / leukemic cell growth (MLL LSC): ineffective | BM Engraftment (%) (MLL-AF9 LSC; [2]): 80.23 ± 23.70% | Disease Latency (days; median) (MLL-AF9 LSC; [2]): 45.8 days | Hematopoietic Liver Engraftment (%) (MLL-AF9 LSC; [2]): 76.5 ± 19.21% | Hematopoietic Spleen Engraftment (%) (MLL-AF9 LSC; [2]): 65.07 ± 43.46% | Liver (MLL-AF9 LSC; [2]): 2.868 ± 0.4089 g | Spleen (MLL-AF9 LSC; [2]): 1.218 ± 0.3266 g | survival (MLL-AF9 LSC; pretreated MLL LSC in syngeneic mice, 80 days of observation, controls succumbed within 8 weeks): did not significantly extend the survival | BM Engraftment (%) (NB4-LR2 (PML-RARα); [3]): 40.27 ± 23.73% | Disease Latency (days; median) (NB4-LR2 (PML-RARα); [3]): 51 days | Hematopoietic Liver Engraftment (%) (NB4-LR2 (PML-RARα); [3]): 58.99 ± 27.07% | Hematopoietic Spleen Engraftment (%) (NB4-LR2 (PML-RARα); [3]): 33.39 ± 25.3% | Liver (NB4-LR2 (PML-RARα); [3]): 2.415 ± 1.844 g | Spleen (NB4-LR2 (PML-RARα); [3]): 0.5226 ± 0.5279 g | disease onset induced by ATRA-resistant APL cells (NB4-LR2 (PML-RARα); single agent, NB4-LR2 xenograft): effectively suppress disease onset | senescence and apoptosis (Kasumi (AML1-ETO); PARPi 72 hrs / 4 days): effectively induce senescence and apoptosis | colony forming ability (Kasumi (AML1-ETO); methylcellulose 7 days, 5 μM Olaparib): reduced the colony forming ability | BM Engraftment (%) [1, 4]: 93.30 ± 9.257% | Disease Latency (days; median) [1, 4]: 34 days | Hematopoietic Liver Engraftment (%) [1, 4]: 93.16 ± 6.838% | Hematopoietic Spleen Engraftment (%) [1, 4]: 86.85 ± 13.12% | Liver [1, 4]: 4.204 ± 1.425 g | Spleen [1, 4]: 0.9309 ± 0.3767 g | effect on mice transplanted with wild type MLL-AF9 leukemic cells (survival) [1]: did not have any significant effect
